EP2678315B1, “(Pyridin-4-yl)benzylamides as allosteric modulators of alpha 7 nAChR” (Janssen Pharmaceutica, N.V., priority 2011, dated 2012)

Experiments:
human alpha 7-wt nAChR [1] = biological target: T1, human alpha 7-wt nAChR (Homo sapiens, UniProt P36544); assay: Patch-clamp current recording (whole-cell voltage-clamp, GH4C1 cells); format: cell-based; parameters: key: Type 0 compounds minimally change the effect size of the current elicited by 1 mM choline.; Type 1 compounds enhance the effect size of the current elicited by 1 mM choline but minimally alter the kinetics of the receptor.; Type 2 compounds enhance the effect size of the current elicited by 1 mM choline while reducing the rate and/or the extent of desensitization.; Type 3 compounds enhance the effect size of the current elicited by 1 mM choline. When tested at higher concentrations up to 10 µM they completely inhibit desensitization; Type 4 compounds allow for an initial desensitization of the receptor followed by a re-opening of the receptor during agonist application; settings: current elicited by 1 mM choline
T1 construct: expressed in transfected cells
Description: The compounds of the present invention are classified as type 1-4, based on qualitative kinetic properties, as determined by whole-cell voltage-clamp recordings. This classification is based on the effect of an alpha 7 PAM compound, as described hereinbefore, on the signal elicited by an agonist application. In particular, said agonist is choline at a concentration of 1mM. In a preferred experimental setting, said alpha 7 PAM compound and choline are simultaneously applied to the cell, as described hereinafter. Desensitization is defined as the closure of the receptor upon activation during the application of the agonist in whole-cell voltage-clamp electrophysiology measurements seen as the reduction of the […] current after initial activation by the agonist.
The definition of the PAM types 1-4 is described hereinafter: Type 0 compounds minimally change the effect size of the current elicited by 1 mM choline. Type 1 compounds enhance the effect size of the current elicited by 1 mM choline but minimally alter the kinetics of the receptor. In particular, the rate and the extent of desensitization and of deactivation of the receptor elicited by the agonist is not affected. The compound-modulated response to 1 mM choline, therefore, is close to a linear scaling of the 1 mM choline response in absence of the alpha 7 PAM compound: Type 2 compounds enhance the effect size of the current elicited by 1 mM choline while reducing the rate and/or the extent of desensitization. Deactivation of the receptor is generally unaffected. Type 3 compounds enhance the effect size of the current elicited by 1 mM choline. […] Deactivation of the receptor may be slowed down. Type 4 compounds allow for an initial desensitization of the receptor followed by a re-opening of the receptor during agonist application. At low-potency concentrations of the alpha 7 PAM compound, the agonist-induced activation, which is followed by desensitization, can still be separated from the compound-induced re-opening as an initial inward current-maximum. At higher potency concentrations of the alpha 7 PAM compound, the re-opening occurs faster than the closure due to desensitization so that the initial current-maximum disappears.
A compound was considered to have interesting PAM-like activity when the potentiation of the peak current was at least 200% compared to the control choline response (= 100%). Such compounds are classified as belonging to a particular PAM type in the Experimental Part. Compounds not meeting the condition are not classified as belonging to a particular PAM-type.
The compounds also have a potentiating effect on the response to choline when measured by whole-cell patch clamp electrophysiology in GH4C1 cells stably over-expressing the human wild-type alpha 7 receptor.
Example D.2 : Patch-clamp current recording
Patch-clamp recording from mammalian cells has provided a powerful means of assessing the function of membrane-bound proteins thought to be subunits of ligand-gated ion channels. Activation of such proteins by endogenous or exogenous ligands cause opening of a pore associated with the receptor through which ions flow down their electrochemical gradient. In the case of the human alpha 7-wt nAChR-expressing GH4C1 recombinant cell line the preferential permeability to calcium of this receptor means that calcium flows into the cell upon activation by ACh, choline and other nicotinic ligands giving rise to a calcium current. Since this receptor rapidly desensitizes in the presence of agonist it is important that an application system is used which is capable of very rapid switching of solutions (< 100 ms) to prevent partial or full desensitisation of receptor responses coincident with the time of agonist application. Consequently, a second convenient technique to assess the enhancement of nicotinic efficacy is a patch-clamp recording from human alpha 7-wt nAChR-expressing GH4C1 cells coupled with a rapid-application system. […]

human alpha 7-wt nAChR [2] = biological target: T1, human alpha 7-wt nAChR; assay: Ca2+ flux imaging (FDSS) (protocol B); format: cell-based; settings: for EC50: Ca2+ assay as described in D.1, read-out: pEC50 (converted); for Emax: read-out: % Efficacy
Description: Example D.1 : Ca^2+ flux imaging (FDSS) (protocol B)
• a) Assay buffer Hanks buffered saline solution (HBSS, Invitrogen, Belgium), supplemented with 10 mM HEPES (Invitrogen, Belgium), CaCl2 to a final concentration of 5 mM, 0.1 % Bovine serum albumin (Sigma-Aldrich NV, Belgium). • b) Calcium-sensitive dye - Fluo-4AM Fluo-4AM (Molecular Probes, USA) was dissolved in DMSO containing 10% Pluronic acid (Molecular Probes, USA) to give a stock solution which was diluted in assay buffer supplemented with 5 mM probenicid (Sigma, Aldrich NV, Belgium) to give a final concentration of 2 µM • c) 384-well plates Black-sided, transparent bottomed 384 well plates coated with poly-D-lysine, PDL pre-coated (Coming, Incorporated, USA) • d) Calcium flux measurement A Functional drug screening system (FDSS, Hamamatsu) was used to measure intracellular free-calcium flux signals.
Monolayers of human alpha 7-wt nAChR-expressing cells were grown in black-sided, transparent bottomed 384 well plates coated with PDL for 24 hours prior to loading with a fluorescent calcium indicator, fluo-4AM for up to 120 minutes.
PAM activity was detected in real time by applying the compounds to be tested to the loaded cells along with an alpha 7 nicotinic receptor agonist during constant monitoring of cellular fluorescence in a FDSS. Compounds giving peak fluorescent responses greater than the response due to agonist alone, were consideted to be alpha 7 nAChR PAMs. The alpha 7 nicotinic receptor agonist was choline, applied at a sub-maximal concentration of 100 µM. In a further setting of the present invention the compounds were applied prior to the alpha 7 nicotinic receptor agonist, in a particular 10 minutes prior to the agonist.
A control response to choline was calculated on each plate from the difference in peak in fluorescence in wells receiving either choline or assay buffer alone. Compounds of the present invention were tested at a concentration range from 0.01 µM to 30 µM. Compounds were considered to have an interesting activity when they potentiated the choline signal at least with 200 % when tested at a concentration of 30 µM (the efficacy of 100 µM choline was defined as 100% in the absence of a PAM). An EC50 (or pEC50) was determined as a concentration relating to half the maximal effect, when a clear sigmoidal curve with top plateau was obtained.

T1 sequence (P36544 23-502): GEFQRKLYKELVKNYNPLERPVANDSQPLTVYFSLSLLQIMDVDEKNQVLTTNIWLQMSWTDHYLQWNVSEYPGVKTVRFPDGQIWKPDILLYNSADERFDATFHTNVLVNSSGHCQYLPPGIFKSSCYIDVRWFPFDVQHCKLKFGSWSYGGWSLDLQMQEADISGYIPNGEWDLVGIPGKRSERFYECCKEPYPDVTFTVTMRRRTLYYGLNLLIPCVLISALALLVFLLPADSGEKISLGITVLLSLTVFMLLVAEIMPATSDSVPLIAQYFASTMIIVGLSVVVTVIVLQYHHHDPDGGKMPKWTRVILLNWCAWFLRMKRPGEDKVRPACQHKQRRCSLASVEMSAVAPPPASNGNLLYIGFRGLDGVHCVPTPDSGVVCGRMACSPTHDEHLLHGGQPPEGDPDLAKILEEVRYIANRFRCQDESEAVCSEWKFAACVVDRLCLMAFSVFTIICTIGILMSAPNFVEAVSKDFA

Cc1cc(-c2c(F)cc(N3CCO[C@H](C(F)(F)F)C3)cc2CNC(=O)c2conc2C)cc(C)n1 [Compound 106]
PAM type (human alpha 7-wt nAChR [1]): 2 | EC50 (human alpha 7-wt nAChR [2]): 36.3 nM | Emax (human alpha 7-wt nAChR [2]): 159%

Cc1cc(-c2c(F)cc(N3CCO[C@H](C(F)(F)F)C3)cc2CNC(=O)C(C)C)cc(C)n1 [Compound 107]
PAM type (human alpha 7-wt nAChR [1]): 2 | EC50 (human alpha 7-wt nAChR [2]): 30.9 nM | Emax (human alpha 7-wt nAChR [2]): 266%

Cc1cc(-c2c(F)cc(N3CCO[C@H](C(F)(F)F)C3)cc2CNC(=O)CC2CC2)cc(C)n1 [Compound 108]
PAM type (human alpha 7-wt nAChR [1]): 2 | EC50 (human alpha 7-wt nAChR [2]): 18.6 nM | Emax (human alpha 7-wt nAChR [2]): 432%

Cc1cc(-c2c(F)cc(N3CCO[C@H](C(F)(F)F)C3)cc2CNC(=O)C2CC2)cc(C)n1 [Compound 109]
PAM type (human alpha 7-wt nAChR [1]): 3 | EC50 (human alpha 7-wt nAChR [2]): 81.3 nM | Emax (human alpha 7-wt nAChR [2]): 258%

Cc1cc(-c2c(F)cc(N3CCO[C@H](C(F)(F)F)C3)cc2CNC(=O)CC(C)C)cc(C)n1 [Compound 110]
PAM type (human alpha 7-wt nAChR [1]): 3 | EC50 (human alpha 7-wt nAChR [2]): 5.01 nM | Emax (human alpha 7-wt nAChR [2]): 384%

Cc1cc(-c2c(F)cc(N3CCO[C@H](C(F)(F)F)C3)cc2CNC(=O)c2cc(C)on2)cc(C)n1 [Compound 111]
PAM type (human alpha 7-wt nAChR [1]): 1 | EC50 (human alpha 7-wt nAChR [2]): 331 nM | Emax (human alpha 7-wt nAChR [2]): 550%

Cc1cc(-c2c(F)cc(N3CCOC(C)C3)cc2CNC(=O)c2cc(C)on2)cc(C)n1 (centres unmarked) [Compound 112]
PAM type (human alpha 7-wt nAChR [1]): 2 | EC50 (human alpha 7-wt nAChR [2]): 1070 nM | Emax (human alpha 7-wt nAChR [2]): 443%

Cc1cc(-c2c(F)cc(N3CCOC(C)C3)cc2CNC(=O)C(C)C)cc(C)n1 (centres unmarked) [Compound 113]
PAM type (human alpha 7-wt nAChR [1]): 2 | EC50 (human alpha 7-wt nAChR [2]): 89.1 nM | Emax (human alpha 7-wt nAChR [2]): 284%

Cc1cc(-c2c(F)cc(N3CCOC(C)C3)cc2CNC(=O)CC2CC2)cc(C)n1 (centres unmarked) [Compound 114]
PAM type (human alpha 7-wt nAChR [1]): 3 | EC50 (human alpha 7-wt nAChR [2]): 158 nM | Emax (human alpha 7-wt nAChR [2]): 415%

Cc1cc(-c2c(F)cc(N3CCOC(C)C3)cc2CNC(=O)C2CC2)cc(C)n1 (centres unmarked) [Compound 115]
PAM type (human alpha 7-wt nAChR [1]): 2 | EC50 (human alpha 7-wt nAChR [2]): 525 nM | Emax (human alpha 7-wt nAChR [2]): 232%

Cc1cc(-c2c(F)cc(N3CCOC(C)C3)cc2CNC(=O)CC(C)C)cc(C)n1 (centres unmarked) [Compound 116]
PAM type (human alpha 7-wt nAChR [1]): 3 | EC50 (human alpha 7-wt nAChR [2]): 20.9 nM | Emax (human alpha 7-wt nAChR [2]): 374%

Cc1cc(-c2c(F)cc(N3CCOC(C)C3)cc2CNC(=O)CC2CCC2)cc(C)n1 (centres unmarked) [Compound 118]
PAM type (human alpha 7-wt nAChR [1]): 3 | EC50 (human alpha 7-wt nAChR [2]): 23.4 nM | Emax (human alpha 7-wt nAChR [2]): 485%

Cc1cc(-c2c(Cl)cc(N3C[C@@H](C)O[C@@H](C)C3)cc2CNC(=O)CC2CC2)cc(C)n1 [Compound 119]
PAM type (human alpha 7-wt nAChR [1]): 2 | EC50 (human alpha 7-wt nAChR [2]): 28.8 nM | Emax (human alpha 7-wt nAChR [2]): 624%

Cc1cc(-c2c(Cl)cc(N3C[C@@H](C)O[C@@H](C)C3)cc2CNC(=O)c2cc(C)on2)cc(C)n1 [Compound 120]
PAM type (human alpha 7-wt nAChR [1]): 1 | EC50 (human alpha 7-wt nAChR [2]): 661 nM

Cc1cc(-c2c(Cl)cc(N3C[C@@H](C)O[C@@H](C)C3)cc2CNC(=O)C(C)C)cc(C)n1 [Compound 121]
PAM type (human alpha 7-wt nAChR [1]): 2 | EC50 (human alpha 7-wt nAChR [2]): 38 nM | Emax (human alpha 7-wt nAChR [2]): 435%
